Measurements: patent US11396501B2, “Heteroaryl compounds as CXCR4 inhibitors, composition and method using the same” (CGENETECH (SUZHOU, CHINA) CO., LTD., priority 2017, dated 2022)

Target: CXCR4 (Homo sapiens, UniProt P61073)
Assay: HPB-ALL CXCR4 competitive binding assay (12G5 binding assay)
Set-up: HPB-ALL cells were maintained in RPMI-1640 (Gibico) supplemented with 10% FBS (Hyclone); endogenous in cells; host or cells: HPB-ALL cells
Settings: HPB-ALL cells; competition with APC-conjugated anti-human CXCR4 clone 12G5 at its EC80; 4° C. for 3 h; FACS
Method: HPB-ALL CXCR4 Competitive Binding Assay
HPB-ALL cells were maintained in RPMI-1640 (Gibico) supplemented with 10% FBS (Hyclone). APC-conjugated anti-human CXCR4 was from Sungene. EC80 was first determined for 12G5 binding to CXCR4. Then the compounds for testing were added into 96-well plates serially diluted at a ratio of 1:3. Cells were washed once with ice-cold assay buffer (DPBS+2% HI-FBS) and then re-suspended in the same buffer at a final concentration of 1×10^6/mL. Cell suspension was then added into the wells and with the addition of APC-conjugated anti-human CXCR4 clone 12G5 at its EC80 determined. The mix of cell, compounds and APC-conjugated anti-human CXCR4 were incubated at 4° C. for 3 h before addition of 100 μL of 4% PFA. Cells were then washed once and resuspended in assay buffer and examined by FACS. The percent (%) effect at each concentration of compound was calculated and relative to the amount of calcium produced in the positive and negative control wells contained within each assay plate. The concentrations and % effect values for tested compounds were plotted and the concentration of compound required for 50% effect (IC50) was determined. Tables 2 summarize results of the CXCR4 competitive binding assay for selected compounds disclosed in the present disclosure. FIGS. 1-2 depict the IC50 curves of compounds A42 and A43.

CXCR4, sequence (P61073 whole entry): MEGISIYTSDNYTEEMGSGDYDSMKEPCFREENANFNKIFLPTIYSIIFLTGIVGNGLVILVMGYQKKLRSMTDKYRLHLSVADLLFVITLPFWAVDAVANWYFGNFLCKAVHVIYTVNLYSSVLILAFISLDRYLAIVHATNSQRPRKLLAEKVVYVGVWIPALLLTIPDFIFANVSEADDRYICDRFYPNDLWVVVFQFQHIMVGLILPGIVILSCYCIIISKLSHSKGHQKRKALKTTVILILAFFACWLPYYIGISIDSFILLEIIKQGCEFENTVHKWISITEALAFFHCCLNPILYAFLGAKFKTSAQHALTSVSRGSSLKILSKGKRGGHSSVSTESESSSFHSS

With `CN(C)CCN(C)c1cc(CN(C)C2CCCc3cccnc32)ncn1` (stereo not shown) [Compound A2] the IC50 was 228 nM.

Work on `CSc1nc(CN(C)C2CCCc3cccnc32)cc(N2CCN(C)CC2)n1` (stereo not shown) [Compound A3] yielded an IC50 of 19 nM.

Work on `CC(c1ccccn1)N(C)Cc1cc(N2CCN(C)CC2)ncn1` (stereo not shown) [Compound A4] yielded an IC50 of 229 nM.

In the case of `CN(Cc1cc(N2CCN(CCO)CC2)ncn1)C1CCCc2cccnc21` (stereo not shown) [Compound A5], the IC50 is reported as 113 nM.

`COCCN1CCN(c2cc(CN(C)C3CCCc4cccnc43)ncn2)CC1` (stereo not shown) [Compound A6] showed an IC50 of 1140 nM.

For `CN(Cc1cc(N2CCNCC2)ncn1)C1CCCc2cccnc21` (stereo not shown) [Compound A7, N-methyl-N-((6-(piperazin-1-yl)pyrimidin-4-yl)methyl)-5,6,7,8-tetrahydroquinolin-8-amine], the IC50 was 393 nM.

For `CN(Cc1cc(N2CCN(CCC#N)CC2)ncn1)C1CCCc2cccnc21` (stereo not shown) [Compound A8, 3-(4-(6-((methyl(5,6,7,8-tetrahydroquinolin-8-yl)amino)methyl)pyrimidin-4-yl)piperazin-1-yl)propanenitrile], the IC50 was 242 nM.

With `Cc1nc(CN(C)C2CCCc3cccnc32)cc(N2CCN(C)CC2)n1` (stereo not shown) [Compound A9, N-methyl-N-((2-methyl-6-(4-methylpiperazin-1-yl)pyrimidin-4-yl)methyl)-5,6,7,8-tetrahydroquinolin-8-amine] the IC50 was 14 nM.

`COc1nc(CN(C)C2CCCc3cccnc32)cc(N2CCN(C)CC2)n1` (stereo not shown) [Compound A10] was tested, and the IC50 was 23 nM.

`CN1CCN(c2cc(CN(C)C3CCCc4cccnc43)nc(C3CC3)n2)CC1` (stereo not shown) [Compound A11] gave an IC50 of 26 nM.

For `CN1CCN(c2cc(CN(C)C3CCCc4cccnc43)nc(N(C)C)n2)CC1` (stereo not shown) [Compound A12], the IC50 was 8000 nM.

With `CN1CCN(c2cc(CN(C)C3CCCc4cccnc43)nc(N3CCCC3)n2)CC1` (stereo not shown) [Compound A13] the IC50 was 8000 nM.

Work on `CN1CCN(c2cc(CN(C)C3CCCc4cccnc43)nc(N3CCOCC3)n2)CC1` (stereo not shown) [Compound A14] yielded an IC50 of 2250 nM.

`CN1CCN(c2cc(CN(C)C3CCCc4cccnc43)nc(N(C)CCO)n2)CC1` (stereo not shown) [Compound A15] was tested, and the IC50 was 606 nM.

For `CN1CCN(c2cc(CN(C)C3CCCc4cccnc43)nc(N)n2)CC1` (stereo not shown) [Compound A16], the IC50 was 17 nM.

With `CN1CCN(c2cc(CN(C)C3CCCc4cccnc43)nc(-c3ccccc3)n2)CC1` (stereo not shown) [Compound A17] the IC50 was 2690 nM.

`CNc1nc(CN(C)C2CCCc3cccnc32)cc(N2CCN(C)CC2)n1` (stereo not shown) [Compound A18] showed an IC50 of 43 nM.

`CCNc1nc(CN(C)C2CCCc3cccnc32)cc(N2CCN(C)CC2)n1` (stereo not shown) [Compound A19] showed an IC50 of 67 nM.

`CC(C)Nc1nc(CN(C)C2CCCc3cccnc32)cc(N2CCN(C)CC2)n1` (stereo not shown) [Compound A20] showed an IC50 of 210 nM.

With `CN1CCN(c2cc(CN(C)C3CCCc4cccnc43)nc(-c3cnn(C)c3)n2)CC1` (stereo not shown) [Compound A21] the IC50 was 790 nM.

With `CCN1CCN(c2cc(CN(C)C3CCCc4cccnc43)ncn2)CC1` (stereo not shown) [Compound A23] the IC50 was 34 nM.

`CC(C)N1CCN(c2cc(CN(C)C3CCCc4cccnc43)ncn2)CC1` (stereo not shown) [Compound A24] showed an IC50 of 42 nM.

`CN(C)C1CCN(c2cc(CN(C)C3CCCc4cccnc43)ncn2)CC1` (stereo not shown) [Compound A25] showed an IC50 of 100 nM.

`CN(Cc1cc(NCCN2CCOCC2)ncn1)C1CCCc2cccnc21` (stereo not shown) [Compound A26] was tested, and the IC50 was 41 nM.

`CSc1nc(CN(C)C2CCCc3cccnc32)c(C)c(N2CCN(C)CC2)n1` (stereo not shown) [Compound A27] was tested, and the IC50 was 7.9 nM.

`CCc1nc(CN(C)C2CCCc3cccnc32)cc(N2CCN(C)CC2)n1` (stereo not shown) [Compound A28] was tested, and the IC50 was 21 nM.

`CC(C)c1nc(CN(C)C2CCCc3cccnc32)cc(N2CCN(C)CC2)n1` (stereo not shown) [Compound A29] was tested, and the IC50 was 78 nM.

With `CCOc1nc(CN(C)C2CCCc3cccnc32)cc(N2CCN(C)CC2)n1` (stereo not shown) [Compound A30] the IC50 was 65 nM.

`CC(C)Oc1nc(CN(C)C2CCCc3cccnc32)cc(N2CCN(C)CC2)n1` (stereo not shown) [Compound A31] gave an IC50 of 77 nM.

For `CSc1nc([C@H](C)N(C)[C@H]2CCCc3cccnc32)cc(N2CCN(C)CC2)n1` [Compound A32], the IC50 was 22 nM.

`CSc1nc([C@H](C)N(C)[C@@H]2CCCc3cccnc32)cc(N2CCN(C)CC2)n1` [Compound A33] showed an IC50 of 268 nM.

`CSc1nc([C@@H](C)N(C)[C@H]2CCCc3cccnc32)cc(N2CCN(C)CC2)n1` [Compound A34] was tested, and the IC50 was 47 nM.

`CSc1nc([C@@H](C)N(C)[C@@H]2CCCc3cccnc32)cc(N2CCN(C)CC2)n1` [Compound A35] gave an IC50 of 106 nM.

`CSc1nc(CN(C)C(CCCCNC(=O)OC(C)(C)C)c2ccccn2)cc(N2CCN(C)CC2)n1` (stereo not shown) [Compound A36] was tested, and the IC50 was 5730 nM.

Work on `Cc1nc(CN(C)C(CCCNC(=O)OC(C)(C)C)c2ccccn2)cc(N2CCN(C)CC2)n1` (stereo not shown) [Compound A37] yielded an IC50 of 4430 nM.

Molecule `Cc1nc(CN(C)C(CCCN)c2ccccn2)cc(N2CCN(C)CC2)n1` (stereo not shown) [Compound A38] has an IC50 of 6940 nM.

For `CN(C)C1CCN(c2cc(CN(C)C3CCCc4cccnc43)ncn2)C1` (stereo not shown) [Compound A39], the IC50 was 94 nM.

`CSc1nc(CN(C)C2c3ncccc3CCC23CC3)cc(N2CCN(C)CC2)n1` (stereo not shown) [Compound A40] gave an IC50 of 110 nM.

`Cc1nc(CN(C)C2c3ncccc3CCC23CC3)cc(N2CCN(C)CC2)n1` (stereo not shown) [Compound A41] was tested, and the IC50 was 97 nM.

Work on `CCN1CCN(c2cc(CN(C)[C@H]3CCCc4cccnc43)nc(C)n2)CC1` [Compound A43] yielded an IC50 of 11 nM.

Work on `CCN(Cc1cc(N2CCN(C)CC2)nc(C)n1)C1c2ncccc2CCC12CC2` (stereo not shown) [Compound A44] yielded an IC50 of 296 nM.

In the case of `CCN1CCN(c2cc(CN(C)C3c4ncccc4CCC34CC4)nc(C)n2)CC1` (stereo not shown) [Compound A45], the IC50 is reported as 886 nM.

In the case of `Cc1nc(CN(C)C2CC3(CC3)Cc3cccnc32)cc(N2CCN(C)CC2)n1` (stereo not shown) [Compound A46], the IC50 is reported as 161 nM.

`Cc1nc(CN(C)[C@H]2CCCc3cccnc32)cc(N2CCN(C3CC3)CC2)n1` [Compound A47] gave an IC50 of 58 nM.

`CN1CCN(c2cc(CN(C)[C@H]3CCCc4cccnc43)nc(C(F)(F)F)n2)CC1` [Compound A48] showed an IC50 of 240 nM.

`Cc1nc(CN(C)[C@H]2CCCc3cccnc32)cc(N2CCN(C3COC3)CC2)n1` [Compound A49] showed an IC50 of 123 nM.

`CN1CCN(c2ccnc(CN(C)C3CCCc4cccnc43)n2)CC1` (stereo not shown) [Compound A50, N-methyl-N-((4-(4-methylpiperazin-1-yl)pyrimidin-2-yl)methyl)-5,6,7,8-tetrahydroquinolin-8-amine] was tested, and the IC50 was 211 nM.

`Cc1nc(CN(C)C2CCCc3cccnc32)c(F)c(N2CCN(C)CC2)n1` (stereo not shown) [Compound A51] gave an IC50 of 16 nM.

`Cc1nc(CN(C)C(C)c2ccccn2)cc(N2CCN(C)CC2)n1` (stereo not shown) [Compound A52] gave an IC50 of 27 nM.

`Cc1nc(CN(C)C(C)c2ncccc2C)cc(N2CCN(C)CC2)n1` (stereo not shown) [Compound A53] was tested, and the IC50 was 33 nM.

With `Cc1ccnc(C(C)N(C)Cc2cc(N3CCN(C)CC3)nc(C)n2)c1` (stereo not shown) [Compound A54] the IC50 was 356 nM.

Molecule `Cc1ccc(C(C)N(C)Cc2cc(N3CCN(C)CC3)nc(C)n2)nc1` (stereo not shown) [Compound A55] has an IC50 of 44 nM.

Work on `Cc1cccc(C(C)N(C)Cc2cc(N3CCN(C)CC3)nc(C)n2)n1` (stereo not shown) [Compound A56] yielded an IC50 of 131 nM.

For `CCN(Cc1cc(N2CCN(C)CC2)nc(C)n1)C1CCCc2cccnc21` (stereo not shown) [Compound A57], the IC50 was 21 nM.

Molecule `CCN(Cc1cc(N2CCN(C)CC2)nc(C)n1)[C@H]1CCCc2cccnc21` [Compound A58] has an IC50 of 19 nM.

With `Cc1nc(CN(CC2CC2)C2CCCc3cccnc32)cc(N2CCN(C)CC2)n1` (stereo not shown) [Compound A59] the IC50 was 63 nM.

`CN(Cc1cc(N2CCN(CC3CC3)CC2)ncn1)C1CCCc2cccnc21` (stereo not shown) [Compound A60] showed an IC50 of 464 nM.

`Cc1nc(CN(C)C(C)(C)c2ccccn2)cc(N2CCN(C)CC2)n1` [Compound A62] was tested, and the IC50 was 2290 nM.

In the case of `Cc1nc(CN(C)[C@H]2CCCc3cccnc32)cc(N2CCN(C)C[C@H]2C)n1` [Compound A63, (S)-N-((6-((R)-2,4-dimethylpiperazin-1-yl)-2-methylpyrimidin-4-yl)methyl)-N-methyl-5,6,7,8-tetrahydroquinolin-8-amine], the IC50 is reported as 29 nM.

In the case of `Cc1nc(CN(C)[C@H]2CCCc3cccnc32)cc(N2CCN(C)C[C@@H]2C)n1` [Compound A64], the IC50 is reported as 21 nM.

With `Cc1nc(CN(C)[C@H]2CCCc3cccnc32)cc(N2CCN(C)[C@H](C)C2)n1` [Compound A65] the IC50 was 13 nM.

Work on `Cc1nc(CN(C)[C@H]2CCCc3cccnc32)cc(N2CCN(C)[C@@H](C)C2)n1` [Compound A66] yielded an IC50 of 20 nM.

Molecule `Cc1nc(CN(C)[C@H]2CCCc3cccnc32)cc(N2C[C@@H](C)N(C)[C@@H](C)C2)n1` [Compound A67] has an IC50 of 12 nM.

With `Cc1nc(CN(C)[C@H]2CCCc3cccnc32)cc(N2CCN3CCC[C@@H]3C2)n1` [Compound A68] the IC50 was 46 nM.

Molecule `Cc1nc(CN(C)[C@H]2CCCc3cccnc32)cc(N2CCN3CCC[C@H]3C2)n1` [Compound A69] has an IC50 of 27 nM.

Work on `Cc1nc(CN(C)[C@H]2CCCc3cccnc32)cc(NCCCN2CCOCC2)n1` [Compound A70] yielded an IC50 of 54 nM.

For `Cc1nc(CN(C)[C@H]2CCCc3cccnc32)cc(NCCN2CCOCC2)n1` [Compound A71], the IC50 was 90 nM.

`Cc1nc(CN(C)[C@H]2CCCc3cccnc32)cc(N2CCC(N3CCOCC3)CC2)n1` [Compound A72] gave an IC50 of 146 nM.

`Cc1nc(CN(C)[C@H]2CCCc3cccnc32)cc(N2CCN(C)CC2CO)n1` (stereo partly shown) [Compound A73] gave an IC50 of 32 nM.

In the case of `Cc1nc(CN(C)[C@H]2CCCc3cccnc32)cc(N2CCC(N3CCN(C)CC3)CC2)n1` [Compound A74], the IC50 is reported as 100 nM.
